Measurements: patent US7732456B2, “Pyridone derivative” (Banyu Pharmaceutical Co., Ltd., priority 2004, dated 2010)
Read-outs that look alike come from different tables or passages of the source.

Key:
human MCH-1R = biological target: T1, human MCH-1R (Homo sapiens, UniProt Q99705); experiment: MCH binding inhibition test; details: membranes of CHO-K1 cells expressing human MCH-1R, 50 pM [125I]MCH, 25° C., an hour; read-out: IC50 (50% inhibition concentration to specific [125I]MCH binding)
T1 construct: expressed in transfected cells; host or cells: CHO-K1 (American Type Culture Collection), plasmid vector pEF/myc/cyto (Invitrogen)
T1 sequence (Q99705 whole entry): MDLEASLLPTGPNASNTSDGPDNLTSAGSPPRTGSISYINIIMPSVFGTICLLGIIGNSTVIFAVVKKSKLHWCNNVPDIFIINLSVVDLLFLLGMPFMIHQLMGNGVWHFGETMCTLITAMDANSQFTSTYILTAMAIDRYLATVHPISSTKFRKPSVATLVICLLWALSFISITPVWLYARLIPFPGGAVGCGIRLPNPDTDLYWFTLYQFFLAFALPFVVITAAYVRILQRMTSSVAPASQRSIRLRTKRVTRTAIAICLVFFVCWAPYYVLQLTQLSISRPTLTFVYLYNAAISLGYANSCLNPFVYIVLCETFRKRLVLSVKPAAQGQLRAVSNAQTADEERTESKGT
Protocol: The obtained expression vector was transfected to a host cell CHO-K1 (American Type Culture Collection) using Lipofectamine Plus Reagent (Life Technology Inc.) to provide MCH-1R expression cells.
After washing the glass filter with 50 mM Tris buffer (pH7.4) comprising 10 mM magnesium chloride, 2 mM ethylenediamine tetraacetate and 0.04% Tween-20, radiative activity on the glass filter was measured. […] MCH binding was determined.

[1] = Brain/cerebrospinal fluid migration test; type: in vivo; details: SD male rats, after 2 hours of oral administration (10 mg/kg); for concentration at 2 h: rat
Text: A test compound was orally or intravenously administered to SD male rats (7 to 10 weeks-age, 200 to 400 g). Under anesthesia with ether for a predetermined period of time, from each of the rats whole blood was collected from its abdominal aorta using a heparin-processed syringe. Thereafter the brain skin was cut open and a 30 G needle for dental use was pierced between the cervical vertebrae and inserted into the subarachnoid cavity. Through the tube connected with the dental 30 G needle, 50-100 μL of the cerebrospinal fluid was collected into a 1-mL syringe, and then the brain was taken out. Each blood sample was centrifuged (4° C., 6,000 rpm,10 minutes) and the resulting plasma was stirred with three-fold the amount thereof of ethanol (including an internal standard substance). The brain sample was added with 2 mL of water and homogenized, a part of which was taken and stirred with three-fold the amount thereof of ethanol (including an internal standard substance). The cerebrospinal fluid was stirred with three-fold the amount thereof of ethanol (including an internal standard substance). Those samples were allowed to stand for 20 minutes at −20° C., and then centrifuged (4° C., 12,000 g, 10 minutes). The supernatant was analyzed through LC/MS/MS, and the concentration levels of the test compound in the plasma, in the brain and in the cerebrospinal fluid were quantified according to a relative calibration curve method.

[2] = Internal kinetics test (plasma concentration after oral or intravenous administration); type: in vivo; details: SD male rats fasted overnight
Protocol: A test compound was orally or intravenously administered to SD male rats (7 to 10 weeks-age, 200 to 400 g) which had fasted overnight, and within a predetermined period of time, about 100 μL of the blood per rat was collected via the tail vein, using a heparinized capillary. The blood was centrifuged (4° C., 6,000 rpm, 10 minutes) to provide plasma. To the plasma tree-fold the amount thereof of ethanol (including an internal standard substance) was added and stored, followed by standing at −20° C. for 20 minutes and then centrifuge (4° C., 10,000 rpm, 10 minutes). The supernatant was analyzed through LC/MS/MS, and the plasma concentration of the test compound was quantified according to a relative calibration curve method.

SMILES	IC50 (human MCH-1R) [nM]	also measured
C[C@@H]1CC[C@@H](C)N1CCOc1ccc(-n2ccc(OCc3ccc(F)cc3)cc2=O)cc1 (relative stereo) [Example 32, 4-(4-Fluorobenzyloxy)-1-{4-[2-(trans-2,5-dimethyl-1-pyrrolidinyl)ethoxy]-phenyl}-1H-pyridin-2-one]	3.5	
CN(C)CCOc1ccc(-n2ccc(OCc3ccccc3)cc2=O)cc1 [Example 1, 4-Benzyloxy-1-{4-[2-(dimethylamino)ethoxy]phenyl}-1H-pyridin-2-one]	9.5	brain concentration [1]: 2.33 nmol/g; concentration at 2 h ([1]; cerebrospinal fluid, read-out: cerebrospinal fluid concentration): 0.046 µM; concentration at 2 h ([1]; plasma, read-out: plasma concentration): 0.25 µM
O=c1cc(OCc2ccccc2)ccn1-c1ccc(OCCN2CCCCC2)cc1 [Example 2, 4-Benxyloxy-1-{4-[2-(1-piperidinyl)ethoxy]phenyl}-1H-pyridin-2-one]	4.4	
CN(CCOc1ccc(-n2ccc(OCc3ccccc3)cc2=O)cc1)Cc1ccccc1 [Example 5, 4-Benzyloxy-1-(4-{2-[benzyl(methyl)amino]ethoxy}phenyl)-1H-pyridin-2-one]	3.8	
O=c1cc(OCc2ccccc2)ccn1-c1ccc(OCCN2CCCC2)cc1 [Example 12, 4-Benzyloxy-1-{4-[2-(1-pyrrolidinyl)ethoxy]phenyl}-1H-pyridin-2-one]		melting point: 109 to 111 °C
O=c1cc(OCc2ccccc2)ccn1-c1ccc(O[C@@H]2CCN(C3CCCC3)C2)cc1 [Example 18, 4-Benzyloxy-1-(4-{[(3R)-1-cyclopentyl-3-pyrrolidinyl]oxy}-phenyl)-1H-pyridin-2-one]	4.3	
CC(C)N1CC[C@@H](Oc2ccc(-n3ccc(OCc4ccccc4)cc3=O)cc2)C1 [Example 19, 4-Benzyloxy-1-(4-{[(3R)-1-isopropyl-3-pyrrolidinyl]oxy}phenyl)-1H-pyridin-2-one]	5.1	
Cc1cc(-n2ccc(OCc3ccccc3)cc2=O)ccc1OCCN1CCCCC1 [Example 21]	2.9	
O=c1cc(OCc2ccccc2)ccn1-c1ccc(OCCN2CCCC2)c(F)c1 [Example 23, 4-Benzyloxy-1-{3-fluoro-4-[2-(1-pyrrolidinyl)ethoxy]phenyl}-1H-pyridin-2-one]	5.2	
O=c1cc(OCc2ccc(F)cc2)ccn1-c1ccc(OCCN2CCCCC2)cc1 [Example 28, 4-(4-Fluorobenzyloxy)-1-{4-[2-(1-piperidinyl)ethoxy]phenyl}-1H-pyridin-2-one]	4.9	
O=c1cc(OCc2ccc(F)cc2)ccn1-c1ccc(OCCN2CCCC2)cc1 [Example 29, 4-(4-Fluorobenzyloxy)-1-{4-[2-(1-pyrrolidinyl)ethoxy]phenyl}-1H-pyridin-2-one]	5.6	half-value period in blood [2]: 3.9 h; bioavailability ([2]; rat, plasma, oral): 79%
CCN(CC)CCOc1ccc(-n2ccc(OCc3ccc(F)cc3)cc2=O)cc1 [Example 30, 1-{4-[2-(Diethylamino)ethoxy]phenyl}-4-(4-fluorobenzyloxy)-1H-pyridin-2-one]	4.8	
O=c1cc(OCc2ccc(Cl)cn2)ccn1-c1ccc(OCCN2CCCC2)cc1 [Example 40, 4-[(5-Chloro-2-pyridinyl)methoxy]-1-{4-[2-(1-pyrrolidinyl)ethoxy]phenyl}-1H-pyridin-2-one]		melting point: 168 to 170 °C
O=c1cc(OCc2ccccc2)ccn1-c1ccc(OCCN2C3CCC2CC3)cc1 [Example 86, 1-{4-[2-(7-Azabicyclo[2.2.1]hept-7-yl)ethoxy]phenyl}-4-benzyloxy-1H-pyridin-2-one]	1.9	
O=c1cc(OCc2ccc(F)cc2)ccn1-c1ccc(OCCN2C3CCC2CC3)cc1 [Example 90, 1-{4-[2-(7-Azabicyclo[2.2.1]hept-7-yl)ethoxy]phenyl}-4-(4-fluorobenzyloxy)-1H-pyridin-2-one]	2.7	
O=c1cc(OCc2ccc(F)cc2)ccn1-c1ccc(OCCN2C3CCCC2CC3)cc1 [Example 91, 1-{4-[2-(8-Azabicylo[3.2.1]oct-8yl)ethoxy]phenyl}-4-(4-fluorobenzyloxy)-1H-pyridin-2-one]	3.5	
O=C1CCCN1CCOc1ccc(-n2ccc(OCc3ccc(F)cc3)cc2=O)cc1 [Example 95, 4-(4-Fluorobenzyloxy)-1-{4-[2-(2-oxo-1-pyrrolidinyl)ethoxy]phenyl}-1H-pyridin-2-one]		melting point: 148 to 149 °C
CCN(CC)CCOc1ccc(-n2ccc(OCc3ccc(Cl)cn3)cc2=O)cc1 [Example 101]	5.4	melting point: 112 to 115 °C
CCCN(C)CCOc1ccc(-n2ccc(OCc3ccc(Cl)cn3)cc2=O)cc1 [Example 116, 4-[(5-Chloro-2-pyridinyl)methoxy]-1-(4-{2-[methyl(propyl)amino]ethoxy}-phenyl)-1H-pyridin-2-one]		melting point: 119 to 123 °C
CC(C)N1CC[C@@H](Oc2ccc(-n3ccc(OCc4ccc(Cl)cn4)cc3=O)cc2)C1 [Example 122, 4-[(5-Chloro-2-pyridinyl)methoxy]-1-(4-{[(3R)-1-isopropyl-3-pyrrolidinyl]-oxy}phenyl)-1H-pyridin-2-one]		melting point: 154 to 155 °C
CCN1CC[C@@H](Oc2ccc(-n3ccc(OCc4ccc(Cl)cn4)cc3=O)cc2)C1 [Example 123, 4-[(5-Chloro-2-pyridinyl)methoxy]-1-(4-{[(3R)-1-ethyl-3-pyrrolidinyl]-oxy}phenyl)-1H-pyridin-2-one]		melting point: 145 to 146 °C

Now from value to compound, other results behind:

IC50 (human MCH-1R) [nM]	SMILES	also measured
1.5	O=c1cc(/C=C/c2ccc(F)cc2)ccn1-c1ccc(OCCN2CCCC2)cc1 [Example 45, 4-[(E)-2-(4-Fluorophenyl)vinyl]-1-{4-[2-(1-pyrrolidinyl)ethoxy]phenyl}-1H-pyridin-2-one]	
4.4	O=c1cc(CCc2ccccc2)ccn1-c1ccc(OCCN2CCCC2)cc1 [Example 53, 4-(2-Phenylethyl)-1-{4-[2-(1-pyrrolidinyl)ethoxy]phenyl}-1H-pyridin-2-one]	
4.5	O=c1cc(OCc2ccsc2)ccn1-c1ccc(OCCN2CCCC2)cc1 [Example 68, 1-{4-[2-(1-Pyrrolidinyl)ethoxy]phenyl}-4-(3-thienylmethoxy)-1H-pyridin-2-one]	
7	COc1ccc(COc2ccn(-c3ccc(OCCN4CCCC4)cc3)c(=O)c2)cc1 [Example 73, 4-(4-Methoxybenzyloxy)-1-{4-[2-(1-pyrrolidinyl)ethoxy]phenyl}-1H-pyridin-2-one]	
4.2	O=c1cc(OCc2cccc(Cl)c2)ccn1-c1ccc(OCCN2CCCC2)cc1 [Example 75, 4-(3-Chlorobenzyloxy)-1-{4-[2-(1-pyrrolidinyl)ethoxy]phenyl}-1H-pyridin-2-one]	
7.8	CCN(CC)CCOc1ccc(-n2ccc(OCc3ccc(F)cc3)nc2=O)cc1 [Example 81]	
8.8	O=c1cc(OCc2ccc(F)cc2)ccn1-c1ccc(O[C@@H]2C[C@H]3CCCN3C2)cc1 [Example 92, 4-(4-Fluorobenzyloxy)-1-{4-[(2R,7aR)-hexahydro-1H-pyrrolidin-2-yloxy]phenyl}-1H-pyridin-2-one]	
5.4	CCN(C)CCOc1ccc(-n2ccc(OCc3ccc(Cl)cn3)cc2=O)cc1 [Example 114, 4-[(5-Chloro-2-pyridinyl)methoxy]-1-(4-{2-[ethyl(methyl)amino]ethoxy}-phenyl)-1H-pyridin-2-one]	
5.5	CC(C)N(C)CCOc1ccc(-n2ccc(OCc3ccc(Cl)cn3)cc2=O)cc1 [Example 115, 4-[(5-Chloro-2-pyridinyl)methoxy]-1-(4-{2-[isopropyl(methyl)amino]ethoxy}-phenyl)-1H-pyridin-2-one]	melting point: 137 to 138 °C
6.8	CN1CC[C@@H](Oc2ccc(-n3ccc(OCc4ccc(Cl)cn4)cc3=O)cc2)C1 [Example 124, 4-[(5-Chloro-2-pyridinyl)methoxy]-1-(4-{[(3R)-1-methyl-3-pyrrolidinyl]-oxy}phenyl)-1H-pyridin-2-one]	
4.7	O=c1cc(OCc2ccc(Cl)cn2)ccn1-c1ccc(OC[C@H]2CCCN2C2CCC2)cc1 [Example 133]	
8.6	CN1CCC[C@H]1COc1ccc(-n2ccc(OCc3ccc(Cl)cn3)cc2=O)cc1 [Example 134, 4-[(5-Chloro-2-pyridinyl)methoxy]-1-(4-{[(2S)-1-methyl-2-pyrrolidinyl]-methoxy}phenyl)-1H-pyridin-2-one]	
